Source: patent US6750244B2, “Compounds active at a novel site on receptor-operated calcium channels useful for treatment of neurological disorders and diseases” (NPS Pharmaceuticals, Inc., priority 1993, dated 2004)
Where two headings read alike, the source gives them in different places. Marks after values point to notes of the source that are not given here.

Legend:
[1] = system: mean arterial blood pressure; conditions: for no significant cardiovascular activity in anesthetized rats at doses up to: i.v.
[2] = system: NMDA receptor-ionophore complex (site labeled by [3H]MK-801); assay: Inhibition of [3H]MK-801 binding in rat cortical/hippocampal washed membrane preparations; conditions: for IC50: read-out: IC50 (μM) vs. [3H]MK-801, rat cortical/hippocampal washed membranes
[3] = system: motor performance; assay: Acute motor impairment (rotorod) in mice; conditions: Frings mice, i.c.v. injection
Method: (§1) In this assay, Frings and CF1 mice were injected with test compound and placed on a knurled rod which rotated at a speed of 6 rpm. The ability of the mice to maintain equilibrium for long periods of time was determined; those mice that were unable to maintain equilibrium on the rotorod for 1 min in each of 3 trials were considered impaired.

[4] = system: NMDA receptor; conditions: rat hippocampal slices
Method: Glutamate-mediated transmission at synapses of Schaffer collateral fibers and CA1 pyramidal cells was measured in slices of rat brain containing the hippocampus. This assay measures electrophysiologically the postsynaptic depolarization caused by the presynaptic release of glutamate, and can readily distinguish synaptic transmission mediated by NMDA or AMPA receptors.

[5] = system: induction of LTP; set-up: species or system rat; conditions: at 300 μM
[6] = system: sound-induced seizures; assay: Sound-induced seizures in Frings mice (reflex epilepsy); assay type: in vivo; conditions: for ED50: Mus musculus, Frings mice
[7] = system: NMDA receptor; assay: Inhibition of NMDA/glycine-induced increases in intracellular calcium in cultured rat cerebellar granule cells (RCGC); assay type: cell-based; conditions: NMDA/glycine-induced increases in intracellular calcium, cultured rat cerebellar granule cells; read-out: IC50 (μM) vs. NMDA
[8] = system: central muscarinic cholinergic receptor; assay type: binding, rat
[9] = molecular target: T1, serotonin uptake site (Rattus norvegicus, UniProt P31652); assay: Serotonin uptake binding assay: [3H]citalopram binding to rat forebrain membranes
T1 construct: from tissue; host or cells: rat forebrain membranes (per the assay title)
T1 sequence (P31652 whole entry): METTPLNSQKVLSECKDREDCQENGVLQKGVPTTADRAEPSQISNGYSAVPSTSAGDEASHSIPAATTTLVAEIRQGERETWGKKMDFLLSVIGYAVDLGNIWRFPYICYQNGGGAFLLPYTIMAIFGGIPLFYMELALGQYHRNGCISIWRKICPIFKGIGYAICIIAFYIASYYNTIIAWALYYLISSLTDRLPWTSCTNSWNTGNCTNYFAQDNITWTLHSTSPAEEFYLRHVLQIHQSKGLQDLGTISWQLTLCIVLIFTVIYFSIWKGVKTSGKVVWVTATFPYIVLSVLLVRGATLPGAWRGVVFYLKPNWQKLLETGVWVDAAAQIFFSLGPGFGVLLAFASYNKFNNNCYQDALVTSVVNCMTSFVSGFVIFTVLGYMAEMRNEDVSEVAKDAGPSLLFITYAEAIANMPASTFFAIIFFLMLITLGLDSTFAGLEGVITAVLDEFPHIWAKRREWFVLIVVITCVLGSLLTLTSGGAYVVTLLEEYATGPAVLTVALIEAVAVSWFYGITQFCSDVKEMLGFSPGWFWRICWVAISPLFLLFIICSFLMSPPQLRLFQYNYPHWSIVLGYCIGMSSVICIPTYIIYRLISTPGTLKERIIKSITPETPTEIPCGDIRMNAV

[10] = molecular target: T2, dopamine uptake site (Cavia porcellus, UniProt H0WCX4); assay: Dopamine uptake binding assay: [3H]WIN-35,428 binding to guinea pig striatal membranes
T2 construct: from tissue; host or cells: guinea pig striatal membranes (per the assay title)
T2 sequence (H0WCX4 1-619): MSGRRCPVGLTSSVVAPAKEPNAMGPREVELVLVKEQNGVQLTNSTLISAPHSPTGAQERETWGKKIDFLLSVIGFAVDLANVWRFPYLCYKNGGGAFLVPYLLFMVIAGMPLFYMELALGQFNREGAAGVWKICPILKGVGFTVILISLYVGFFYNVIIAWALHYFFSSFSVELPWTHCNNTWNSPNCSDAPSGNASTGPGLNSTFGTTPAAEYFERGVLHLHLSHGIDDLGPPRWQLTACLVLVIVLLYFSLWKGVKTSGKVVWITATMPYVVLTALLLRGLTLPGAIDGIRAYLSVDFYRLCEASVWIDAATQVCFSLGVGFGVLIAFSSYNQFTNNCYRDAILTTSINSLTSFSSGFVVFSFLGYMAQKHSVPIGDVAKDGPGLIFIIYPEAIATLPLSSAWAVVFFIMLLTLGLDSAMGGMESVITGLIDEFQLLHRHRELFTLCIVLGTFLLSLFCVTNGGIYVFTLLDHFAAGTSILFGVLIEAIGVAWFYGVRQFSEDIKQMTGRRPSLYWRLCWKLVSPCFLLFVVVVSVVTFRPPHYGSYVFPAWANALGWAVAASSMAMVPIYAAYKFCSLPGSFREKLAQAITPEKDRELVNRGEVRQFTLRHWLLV

[11] = in vivo; conditions: mouse, in vivo
Method: as §1

[12] = system: T3, L-type calcium channel; assay: Inhibition of KCl depolarization-induced increases in intracellular calcium in cultured rat cerebellar granule cells; assay type: cell-based; conditions: cultured rat cerebellar granule cells; read-out: L-type calcium channel: estimated IC50, KCl depolarization-induced increases in intracellular calcium
T3 construct: L-type calcium channel: estimated IC50, KCl depolarization-induced increases in intracellular calcium; other: cultured
Text: The ability of arylalkylamines to inhibit dihydropyridine-sensitive Ca^2+ channels was examined in cerebellar granule cells and a rat aortic smooth muscle cell line, A7r5 cells.

[13] = system: focal ischemic stroke; assay: Rat model of focal ischemic stroke (vessel occlusion); assay type: in vivo, rats; conditions: i.p. 2 mg/kg 30 min prior to vessel occlusion and 2 mg/kg 3 hr post-occlusion
[14] = molecular target: T4, norepinephrine uptake site (Rattus norvegicus, UniProt Q63380); assay: Norepinephrine uptake binding assay: [3H]desipramine binding to rat cortical membranes
T4 construct: from tissue; host or cells: rat cortical membranes (per the assay title)
T4 sequence (Q63380 1-617): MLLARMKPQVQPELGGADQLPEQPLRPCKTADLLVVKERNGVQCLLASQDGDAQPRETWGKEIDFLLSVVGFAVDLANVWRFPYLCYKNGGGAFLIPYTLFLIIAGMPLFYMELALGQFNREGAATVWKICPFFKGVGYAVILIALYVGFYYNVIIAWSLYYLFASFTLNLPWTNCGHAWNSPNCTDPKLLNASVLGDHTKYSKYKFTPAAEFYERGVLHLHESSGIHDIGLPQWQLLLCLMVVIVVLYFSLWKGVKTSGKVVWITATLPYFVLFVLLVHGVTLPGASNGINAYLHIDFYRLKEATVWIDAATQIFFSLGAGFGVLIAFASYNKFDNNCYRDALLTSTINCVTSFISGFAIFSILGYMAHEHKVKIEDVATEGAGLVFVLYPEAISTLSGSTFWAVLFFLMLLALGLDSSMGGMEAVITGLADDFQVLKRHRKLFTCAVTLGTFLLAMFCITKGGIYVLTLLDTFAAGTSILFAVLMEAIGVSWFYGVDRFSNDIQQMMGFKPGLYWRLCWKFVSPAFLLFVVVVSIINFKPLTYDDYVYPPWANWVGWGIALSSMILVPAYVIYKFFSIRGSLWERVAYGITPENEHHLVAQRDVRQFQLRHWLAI

[15] = system: seizure threshold; assay: i.v. Metrazol test (seizure threshold) in mice; assay type: in vivo
[16] = system: neuronal vacuolization
[17] = system: behavior; assay: Behavioral effects in conscious male Wistar rats
[18] = system: maximal electroshock-induced seizures; assay: Maximal electroshock-induced seizures in mice; assay type: in vivo; conditions: Mus musculus, ip; mice
[19] = system: behavior; assay: Behavioral effects in conscious beagle dogs
[20] = system: mean arterial pressure, heart rate, ECG; assay: Cardiovascular activity in conscious beagle dogs
[21] = system: focal ischemia; assay: Photothrombotic (Rose Bengal) model of focal cerebral ischemia; assay type: in vivo, rat; conditions: 10 mg/kg i.p. at 15 min, 3 hr, and again 6 hr post-occlusion
Text: In a third model of focal cerebral ischemia in the rat, an ischemic infarct was produced by a photothrombotic method using the dye Rose Bengal.

[22] = system: temporary focal ischemia; assay: Temporary focal cerebral ischemia (middle cerebral artery occlusion, suture withdrawn after 2 hr); assay type: in vivo, rat
Method: In a fourth model of focal cerebral ischemia in the rat, the middle cerebral artery was temporarily occluded by passing a small piece of suture thread through the carotid artery to the region of the middle cerebral artery. The suture thread was withdrawn after an ischemic period of 2 hr. Core body temperature was maintained at 37° C. […]

[23] = system: PBQ-elicited writhing; assay type: in vivo; conditions: 4 mg/kg i.p.
Method: In the first series of experiments, the animals were administered an unpleasant stimulus (2-phenyl-1,4-benzoquinone, PBQ) which elicits a writhing response (abdominal stretching). Typically, the number of writhes occurring in a 5 min observation period is recorded. […] Nonsteroidal antiinflammatory agents are likewise effective in this model.

[24] = 3 mg/kg i.v. (60 sec bolus injection)
[25] = 10 mg/kg i.v. (60 sec bolus injection)

NCCCNCCCNCCCNC(=O)Cc1c[nH]c2ccc(F)cc12 [Compound 9]
Drop in Mean Arterial Blood Pressure ([1]; 4.5 μmoles/kg i.v., rats): 75 mm Hg at | Drop in Mean Arterial Blood Pressure: duration ([1]; 4.5 μmoles/kg i.v., rats): i.v., 90 min | duration of the hypotensive effect ([1]; systemic administration in rats): approximately 30 min | % inhibition of [3H]MK-801 binding at the stated concentration (IC50 study incomplete) ([2]; at 100 μM): (10% at 100 μM)^d | IC50 [2]: > 100 µM | TD50, acute motor impairment [3]: 14.8 µg | Suppression of NMDA Receptor-Mediated Synaptic Transmission (concentration which suppresses) [4]: 10 to 100 µM | LTP Assay (block of the induction of LTP) [5]: no block | IC50, prevention of sound-induced seizures ([6]; intracerebroventricular (i.c.v.) injection): 4.77 µg | IC50 [7]: 1.2 µM

CC(CN)C(c1cccc(Cl)c1)c1cccc(Cl)c1 (stereo not drawn) [Compound 46]
Central muscarinic cholinergic receptor: percent block of [3H]QNB binding ([8]; at 0.1 μM): 33% at. | Central muscarinic cholinergic receptor: percent block of [3H]QNB binding ([8]; at 10 μM): 0.189% at | IC50 [2]: 5.2 µM | Monoamine uptake binding assays: serotonin uptake binding assay, percent block ([9]; at 0.1 μM): 10^g10% at | Monoamine uptake binding assays: serotonin uptake binding assay, percent block ([9]; at 10 μM): 0.1^h75% at | Monoamine uptake binding assays: dopamine uptake binding assay, percent block ([10]; at 0.1 μM): 40% at | Monoamine uptake binding assays: dopamine uptake binding assay, percent block ([10]; at 10 μM): 0.1^f97% at | TD50 ([11]; Frings, ip): 18 to 21 mg/kg | IC50 [12]: 676 nM | neuroprotectant activity in a rat model of focal ischemic stroke [13]: no significant neuroprotectant activity | Monoamine uptake binding assays: norepinephrine uptake binding assay, percent block ([14]; at 0.1 μM): 10^f7% at | Monoamine uptake binding assays: norepinephrine uptake binding assay, percent block ([14]; at 10 μM): 0.1^g64% at | ED50 ([6]; ip): 25 mg/kg | IC50 [7]: 0.013 µM

CNCCC(c1cccc(F)c1)c1cccc(F)c1 [Compound 60, N-methyl-3,3-bis(3-fluorophenyl)-1-propylamine]
Central muscarinic cholinergic receptor: percent block of [3H]QNB binding ([8]; at 0.1 μM): 13% at | Central muscarinic cholinergic receptor: percent block of [3H]QNB binding ([8]; at 10 μM): 0.193% at | seizure threshold, i.v. Metrazol test ([15]; 1 and 4 mg/kg i.p.): no effect on seizure threshold | seizure threshold, i.v. Metrazol test ([15]; 8 and 17 mg/kg i.p.): a reduction in seizure threshold | dose without neuronal vacuolization ([16]; i.p.): 20 mg/kg | dose without neuronal vacuolization ([16]; i.v.): 10 mg/kg | IC50 [2]: 0.641 µM | behavioral effects ([17]; 16 mg/kg i.v.): Straub tail, convulsions, and death | behavioral effects ([17]; dose of a mg/kg i.v.): excitation, stereotypies, increased reactivity to touch, increased muscle tone, and tremor | behavioral effects ([17]; doses up to 4 mg/kg i.v.): no significant behavioral effects | IC50 ([9]; read-out: Monoamine uptake binding assays: serotonin uptake binding assay, IC50): 68 nM | TD50 ([11]; Frings, ip): 9.2 mg/kg | TD50 ([11]; Frings, po): 25.6 mg/kg | TD50 ([11]; ip): 17.3 mg/kg | IC50 [12]: 2300 nM | ED50 [18]: 8.17 mg/kg | neuroprotectant activity in a rat model of focal ischemic stroke [13]: significant neuroprotectant activity | behavioral effects [19, 24]: a slight increase in respiratory rate | behavioral effects [19, 25]: dilated pupils, whole body tremors, salivation, and urination | behavioral effects ([19]; 0.3 and 1 mg/kg i.v. (60 sec bolus injection)): no significant behavioral effects | Monoamine uptake binding assays: norepinephrine uptake binding assay, percent block ([14]; at 0.1 μM): 16% | Monoamine uptake binding assays: norepinephrine uptake binding assay, percent block ([14]; at 10 μM): at 0.1^g64% | IC50 ([14]; read-out: Monoamine uptake binding assays: norepinephrine uptake binding assay, IC50): 914 nM | cardiovascular activity ([20]; 0.3 mg/kg i.v. (60 sec bolus injection)): no significant cardiovascular activity | mean arterial pressure ([20]; 1 mg/kg i.v. (60 sec bolus injection)): transient increases in mean arterial pressure | heart rate [20, 24]: transient increases in heart rate | mean arterial pressure [20, 24]: transient increases in mean arterial pressure | heart rate [20, 25]: transient increases in heart rate | mean arterial pressure [20, 25]: larger magnitude and longer duration effects | changes in the ECG ([20]; doses up to 10 mg/kg i.v. (60 sec bolus injection)): no significant changes in the ECG | ED50 ([6]; ip): 4.4 mg/kg | ED50 ([6]; oral): 10 mg/kg | neuroprotectant activity, photothrombotic model [21]: no significant neuroprotectant activity | IC50 [7]: 0.416 µM | neuroprotectant activity in a rat model of temporary focal ischemic stroke ([22]; i.p. or i.v. 1 mg/kg 2 hr and again 8 hr post-occlusion): significant neuroprotectant activity | neuroprotectant activity in a rat model of temporary focal ischemic stroke ([22]; i.v. 1 mg/kg 2 hr post-occlusion): significant neuroprotectant activity

Cc1ccc(F)cc1C(CCN)c1cc(F)ccc1C [Compound 58, 3,3-bis(3-fluoro-6-methylphenyl)-1-propylamine]
no significant cardiovascular activity in anesthetized rats at doses up to [1]: up to 2 mg/kg | Central muscarinic cholinergic receptor: percent block of [3H]QNB binding ([8]; at 0.1 μM): 1% at | Central muscarinic cholinergic receptor: percent block of [3H]QNB binding ([8]; at 10 μM): 0.148% at | IC50 [2]: 0.203 µM | Monoamine uptake binding assays: serotonin uptake binding assay, percent block ([9]; at 0.1 μM): 10^g27% at | Monoamine uptake binding assays: serotonin uptake binding assay, percent block ([9]; at 10 μM): 0.1^h95% at | Monoamine uptake binding assays: dopamine uptake binding assay, percent block ([10]; at 0.1 μM): 0% at | Monoamine uptake binding assays: dopamine uptake binding assay, percent block ([10]; at 10 μM): 0.1^f45% at | TD50 ([11]; Frings, ip): 14.5 mg/kg | IC50 [12]: 2600 nM | neuroprotectant activity in a rat model of focal ischemic stroke [13]: no significant neuroprotectant activity | Monoamine uptake binding assays: norepinephrine uptake binding assay, percent block ([14]; at 0.1 μM): 10^f1% at | Monoamine uptake binding assays: norepinephrine uptake binding assay, percent block ([14]; at 10 μM): 0.1^g67% at | ED50 ([6]; ip): 0.9 mg/kg | IC50 [7]: 0.028 µM

NC(=O)CC(c1cccc(F)c1)c1cccc(F)c1 [Compound 151, 3,3-Bis(3-fluorophenyl)propanamide]
seizure threshold, i.v. Metrazol test ([15]; 36.5 and 108 mg/kg i.p.): a significant increase in seizure threshold | IC50 [2]: > 100 µM | TD50 ([11]; ip): 108 mg/kg | ED50 [18]: 36.5 mg/kg | IC50 [7]: 54.9 µM

CN1CC[C@]23c4c5ccc(O)c4O[C@H]2[C@@H](O)C=C[C@H]3[C@H]1C5 [morphine, reference compound]
block of the writhing response [23]: 100%

CCNCCC(c1cccc(F)c1)c1cccc(F)c1 [Compound 59, N-ethyl-3,3-bis(3-fluorophenyl)-1-propylamine]
no significant cardiovascular activity in anesthetized rats at doses up to [1]: up to 10 mg/kg | Central muscarinic cholinergic receptor: percent block of [3H]QNB binding ([8]; at 0.1 μM): 9% at | Central muscarinic cholinergic receptor: percent block of [3H]QNB binding ([8]; at 10 μM): 0.187% at | seizure threshold, i.v. Metrazol test ([15]; 11.7 mg/kg i.p.): a reduction in seizure threshold | IC50 [2]: 0.453 µM | Monoamine uptake binding assays: serotonin uptake binding assay, percent block ([9]; at 0.1 μM): 10^g14% at | Monoamine uptake binding assays: serotonin uptake binding assay, percent block ([9]; at 10 μM): 0.1^h86% at | Monoamine uptake binding assays: dopamine uptake binding assay, percent block ([10]; at 0.1 μM): 2% at | Monoamine uptake binding assays: dopamine uptake binding assay, percent block ([10]; at 10 μM): 0.1^f78% at | TD50 ([11]; Frings, ip): 7.8 mg/kg | neuroprotectant activity in a rat model of focal ischemic stroke [13]: no significant neuroprotectant activity | Monoamine uptake binding assays: norepinephrine uptake binding assay, percent block ([14]; at 0.1 μM): 10^f7% at | Monoamine uptake binding assays: norepinephrine uptake binding assay, percent block ([14]; at 10 μM): 0.1^g51% at | ED50 ([6]; ip): 2.7 mg/kg | IC50 [7]: 0.272 µM
